According to US7101853B2 (Amylin Pharmaceuticals, Inc., priority 1997, dated 2006):
Where two headings read alike, the source gives them in different places. Where no end group is shown, it is not given here.

Tests used:
[1] = biological target: amylin receptor (membrane-bound, rat basal forebrain membranes containing the nucleus accumbens and surrounding regions) (rat); experiment: competition with 125I-rat amylin on rat basal forebrain membranes
ethanol gavaged rat = experiment: Gastroprotection: ethanol-induced mucosal damage in the ethanol gavaged rat; format: in vivo
Excerpt: The gastroprotective properties of amylin in an animal model for gastritis—the ethanol gavaged rat—are described in this example.
Mucosal damage was scored between 0 (no damage) and 5 (100% of stomach covered by hyperemia and ulceration) by investigators blinded to the treatment. […] This prediction was obtained by applying the published relationship between injected subcutaneous dose and peak plasma concentration in rats. Young, A. A. et al., Drug Devel. Res. 37:231-48 (1996). […] Mimicking this physiological effect is unlikely to result in unwanted side effects, as is often the case with administration of unphysiological xenobiotics.

[2] = test system: Harlan Sprague Dawley (non-diabetic) rats; experiment: Phenol red gastric emptying assay, normal rats; format: in vivo, rat; conditions: 1 μg s.c. 5 minutes before gavage, normal HSD rats
Excerpt: (§1) Briefly, conscious rats received by gavage. […] Twenty minutes after gavage, rats were anesthetized using 5% halothane, the stomach exposed and clamped at the pyloric and lower esophageal sphincters using artery forceps, removed and opened into an alkaline solution which was made up to a fixed volume. Stomach content was derived from the intensity of the phenol red in the alkaline solution, measured by absorbance at a wavelength of 560 nm. In most experiments, the stomach was clear. In other experiments, particulate gastric contents were centrifuged to clear the solution for absorbance measurements. Where the diluted gastric contents remained turbid, the spectroscopic absorbance due to phenol red was derived as the difference between that present in alkaline vs acetified diluent. […] The quantity of phenol red that could be recovered from the upper gastrointestinal tact within […] of gavage was 89±4%; dye which appeared to bind irrecoverably to the gut luminal surface may have accounted for the balance. To compensate for this small loss, percent of stomach contents remaining after 20 minutes were expressed as a fraction of the gastric contents recovered from control rats sacrificed immediately after gavage in the same experiment. Percent gastric emptying contents remaining=(absorbance at 20 min)/(absorbance at 0 min). […]

diabetic BB rats = experiment: Phenol red gastric emptying assay, diabetic rats; format: in vivo, rat; conditions: 10 μg s.c. 5 minutes before gavage
Excerpt: as §1

[3] = test system: Harlan Sprague Dawley rats; experiment: Tritiated glucose gastric emptying assay; format: in vivo, rat
Protocol: Conscious, non-fasted, Harlan Sprague Dawley rats were restrained by the tail, the tip of which was anesthetized using 2% lidocaine. Tritium in plasma separated from tail blood collected 0, 15, 30, 60, 90 and 120 minutes after gavage was detected in a beta counter.

[4] = test system: ethanol- or indomethacin-induced gastritis in rats; conditions: cited from earlier work
[5] = in rats, in rabbits, and in humans with Paget's disease; cited from earlier work
treated test animals = experiment: Amylin activity in vivo in treated test animals

Work on “purified human amylin (from UniProt P10997 34-70) (peptide)” yielded an IC50 [1] of 0.05 nM.

For rat amylin, the “Mucosal damage, percent of scores in the saline-treated controls” value (shortened to “Mucosal damage, percent of scores”) (ethanol gavaged rat; 0.001 μg s.c. 5 min before gavage of 1 ml absolute ethanol) was 95.3±15.2%, the “Mucosal damage, percent of scores” value (ethanol gavaged rat; 0.01 μg s.c. 5 min before gavage of 1 ml absolute ethanol) was 76.6±13.8% and the “Mucosal damage, percent of scores” value (ethanol gavaged rat; 0.1 μg s.c. 5 min before gavage of 1 ml absolute ethanol) was 70.1±10.7%. The “Mucosal damage, percent of scores” value (ethanol gavaged rat; 0.3 μg s.c. 5 min before gavage of 1 ml absolute ethanol) was 33.9±7.7%, the “Mucosal damage, percent of scores” value (ethanol gavaged rat; 1 μg s.c. 5 min before gavage of 1 ml absolute ethanol) was 59.6±5.8% and the “Mucosal damage, percent of scores” value (ethanol gavaged rat; 3 μg s.c. 5 min before gavage of 1 ml absolute ethanol) was 35.6±11.5%. For the same compound, the “Mucosal damage, percent of scores” value (ethanol gavaged rat; 10 μg s.c. 5 min before gavage of 1 ml absolute ethanol) was 32.9±8.3%, the “Predicted increase in circulating amylin concentrations at the 50% gastroprotective dose” value (ethanol gavaged rat; […] s.c., from published relationship between s.c. dose and peak plasma concentration in rats) was 1.8 ± 0.4 pM and the “Reduction of the injury score” value (ethanol gavaged rat; as observed with the 10 μg dose) was “up to 67%”. For the same compound, the “ED50 for the gastroprotective effect” value (ethanol gavaged rat; s.c., ±0.4 log units) was 0.036 μg/rat, the “Suppression of gastric emptying” value [2] was “complete” and the “Suppression of gastric emptying” value (diabetic BB rats) was “complete”. For the same compound, the “Effect on absorption of the label (plasma tritium)” value ([3]; s.c. 0.1-100 μg 1 minute before gavage) was “dose-dependently slowed and/or delayed the absorption of the label” and the “ED50 derived from the logistic fit (plasma tritium AUC over 30 minutes vs dose)” value ([3]; s.c. 1 minute before gavage of tritiated glucose) was 0.35 μg.

For “amylin (KCNTATCATQRLANFLVHSSNNFGAILSSTNVGSNTY; not fully specified (C-terminus, bridges); cysteine pairing not given here; UniProt P10997 34-70, looked up) [amylin as named in the cited literature, species form not specified at the place]”, the “Effect on ethanol- or indomethacin-induced gastritis” value ([4]; intracerebroventricular injections) is listed as “did have an effect”, the “Effect on ethanol- or indomethacin-induced gastritis” value ([4]; subcutaneous injections) is listed as “no effect” and the “Lowering of plasma calcium” value [5] is listed as “up to 20%”.

For `CC[C@H](C)[C@H](NC(=O)[C@@H]1CCCN1C(=O)CNC(=O)[C@H](Cc1ccccc1)NC(=O)[C@H](CC(N)=O)NC(=O)[C@H](CC(N)=O)NC(=O)[C@H](CO)NC(=O)[C@H](CO)NC(=O)[C@H](Cc1c[nH]cn1)NC(=O)[C@@H](NC(=O)[C@H](CC(C)C)NC(=O)[C@H](Cc1ccccc1)NC(=O)[C@H](CC(N)=O)NC(=O)[C@H](C)NC(=O)[C@H](CC(C)C)NC(=O)[C@H](CCCNC(=N)N)NC(=O)[C@H](CCC(N)=O)NC(=O)[C@@H](NC(=O)[C@H](C)NC(=O)[C@@H]1CSSC[C@H](NC(=O)[C@@H](N)CCCCN)C(=O)N[C@@H](CC(N)=O)C(=O)N[C@@H]([C@@H](C)O)C(=O)N[C@@H](C)C(=O)N[C@@H]([C@@H](C)O)C(=O)N1)[C@@H](C)O)C(C)C)C(=O)N[C@@H](CC(C)C)C(=O)N1CCC[C@H]1C(=O)N1CCC[C@H]1C(=O)N[C@H](C(=O)N[C@@H](CC(N)=O)C(=O)N[C@H](C(=O)NCC(=O)N[C@@H](CO)C(=O)N[C@@H](CC(N)=O)C(=O)N[C@H](C(=O)N[C@@H](Cc1ccc(O)cc1)C(N)=O)[C@@H](C)O)C(C)C)[C@@H](C)O` [^25,28,29Pro-h-Amylin], the “Amylin activity in vivo” value (treated test animals) was “show amylin activity in vivo”.

With “des-^1Lys-h-amylin (CNTATCATQRLANFLVHSSNNFGAILSSTNVGSNTY)” the “Amylin activity in vivo” value (treated test animals) was “show amylin activity in vivo”.
